Data: ChEMBL document CHEMBL2440076, “New triarylpyrazoles as broad-spectrum anticancer agents: design, synthesis, and biological evaluation” (Eur J Med Chem, 2013)

Legend:
Format in all cases: functional
[1] = test system: OVCAR-8; test: Growth inhibition of human OVCAR8 cells assessed as cell growth at 5X10'-8 M after 48 hrs by sulforhodamine B assay; details: OVCAR-8, 48 h, read-out: Activity
[2] = test system: RPMI-8226; test: Growth inhibition of human RPMI8226 cells assessed as cell growth at 5X10'-6 M after 48 hrs by sulforhodamine B assay; details: RPMI-8226, 48 h, read-out: Activity
[3] = test system: SF-268; test: Growth inhibition of human SF268 cells assessed as cell growth at 5X10'-6 M after 48 hrs by sulforhodamine B assay; details: SF-268, 48 h, read-out: Activity
[4] = test system: SNB-19; test: Growth inhibition of human SNB19 cells assessed as cell growth at 5X10'-6 M after 48 hrs by sulforhodamine B assay; details: SNB-19, 48 h, read-out: Activity
[5] = test system: 786-0; test: Growth inhibition of human 786-0 cells assessed as cell growth at 5X10'-7 M after 48 hrs by sulforhodamine B assay; details: 786-0, 48 h, read-out: Activity
[6] = test system: BT-549; test: Growth inhibition of human BT549 cells assessed as cell growth at 5X10'-5 M after 48 hrs by sulforhodamine B assay; details: BT-549, 48 h, read-out: Activity
[7] = test system: HCT-116; test: Growth inhibition of human HCT116 cells assessed as cell growth at 5X10'-8 M after 48 hrs by sulforhodamine B assay; details: HCT-116, 48 h, read-out: Activity
[8] = test system: U-251; test: Growth inhibition of human U251 cells assessed as cell growth at 5X10'-6 M after 48 hrs by sulforhodamine B assay; details: U-251, 48 h, read-out: Activity
[9] = test system: MCF7; test: Growth inhibition of human MCF7 cells assessed as cell growth at 5X10'-8 M after 48 hrs by sulforhodamine B assay; details: MCF7, 48 h, read-out: Activity
[10] = test system: PC-3; test: Growth inhibition of human PC3 cells assessed as cell growth at 5X10'-9 M after 48 hrs by sulforhodamine B assay; details: PC-3, 48 h, read-out: Activity
[11] = test system: HT-29; test: Growth inhibition of human HT-29 cells assessed as cell growth at 5X10'-9 M after 48 hrs by sulforhodamine B assay; details: HT-29, 48 h, read-out: Activity
[12] = test system: K562; test: Growth inhibition of human K562 cells assessed as cell growth at 5X10'-8 M after 48 hrs by sulforhodamine B assay; details: K562, 48 h, read-out: Activity
[13] = test system: MCF7; test: Growth inhibition of human MCF7 cells assessed as cell growth at 5X10'-9 M after 48 hrs by sulforhodamine B assay; details: MCF7, 48 h, read-out: Activity
[14] = test system: RPMI-8226; test: Growth inhibition of human RPMI8226 cells assessed as cell growth at 5X10'-5 M after 48 hrs by sulforhodamine B assay; details: RPMI-8226, 48 h, read-out: Activity
[15] = test system: MDA-MB-435; test: Growth inhibition of human MDA-MB-435 cells assessed as cell growth at 5X10'-6 M after 48 hrs by sulforhodamine B assay; details: MDA-MB-435, 48 h, read-out: Activity
[16] = test system: HT-29; test: Growth inhibition of human HT-29 cells assessed as cell growth at 5X10'-6 M after 48 hrs by sulforhodamine B assay; details: HT-29, 48 h, read-out: Activity
[17] = test system: ACHN; test: Growth inhibition of human ACHN cells assessed as cell growth at 5X10'-9 M after 48 hrs by sulforhodamine B assay; details: read-out: Activity
[18] = test system: SK-MEL-5; test: Growth inhibition of human SK-MEL-5 cells assessed as cell growth at 5X10'-6 M after 48 hrs by sulforhodamine B assay; details: SK-MEL-5, 48 h, read-out: Activity
[19] = test system: NCI-H522; test: Growth inhibition of human NCI-H522 cells assessed as cell growth at 5X10'-8 M after 48 hrs by sulforhodamine B assay; details: NCI-H522, 48 h, read-out: Activity
[20] = test system: RPMI-8226; test: Growth inhibition of human RPMI8226 cells assessed as cell growth at 5X10'-8 M after 48 hrs by sulforhodamine B assay; details: RPMI-8226, 48 h, read-out: Activity
[21] = test system: HL-60(TB); test: Growth inhibition of human HL-60(TB) cells assessed as cell growth at 5X10'-9 M after 48 hrs by sulforhodamine B assay; details: HL-60, 48 h, read-out: Activity
[22] = test system: RPMI-8226; test: Growth inhibition of human RPMI8226 cells assessed as cell growth at 5X10'-7 M after 48 hrs by sulforhodamine B assay; details: RPMI-8226, 48 h, read-out: Activity
[23] = test system: Malme-3M; test: Growth inhibition of human MALME-3M cells assessed as cell growth at 5X10'-8 M after 48 hrs by sulforhodamine B assay; details: read-out: Activity
[24] = test system: ACHN; test: Growth inhibition of human ACHN cells assessed as cell growth at 5X10'-5 M after 48 hrs by sulforhodamine B assay; details: read-out: Activity
[25] = test system: MDA-MB-468; test: Growth inhibition of human MDA-MB-468 cells assessed as cell growth at 5X10'-9 M after 48 hrs by sulforhodamine B assay; details: MDA-MB-468, 48 h, read-out: Activity
[26] = test system: TK-10; test: Growth inhibition of human TK10 cells assessed as cell growth at 5X10'-7 M after 48 hrs by sulforhodamine B assay; details: TK-10, 48 h, read-out: Activity
[27] = test system: COLO 205; test: Growth inhibition of human COLO205 cells assessed as cell growth at 5X10'-9 M after 48 hrs by sulforhodamine B assay; details: COLO 205, 48 h, read-out: Activity
[28] = test system: HL-60(TB); test: Growth inhibition of human HL-60(TB) cells assessed as cell growth at 5X10'-7 M after 48 hrs by sulforhodamine B assay; details: HL-60, 48 h, read-out: Activity
[29] = test system: NCI-H23; test: Growth inhibition of human NCI-H23 cells assessed as cell growth at 5X10'-9 M after 48 hrs by sulforhodamine B assay; details: NCI-H23, 48 h, read-out: Activity
[30] = test system: ACHN; test: Growth inhibition of human ACHN cells assessed as cell growth at 5X10'-7 M after 48 hrs by sulforhodamine B assay; details: read-out: Activity
[31] = Growth inhibition of human NCI-ADR-RES cells assessed as cell growth at 5X10'-8 M after 48 hrs by sulforhodamine B assay; details: read-out: Activity
[32] = test system: MDA-MB-435; test: Growth inhibition of human MDA-MB-435 cells assessed as cell growth at 5X10'-8 M after 48 hrs by sulforhodamine B assay; details: MDA-MB-435, 48 h, read-out: Activity
[33] = test system: RXF 393; test: Growth inhibition of human RXF393 cells assessed as cell growth at 5X10'-5 M after 48 hrs by sulforhodamine B assay; details: RXF 393, 48 h, read-out: Activity
[34] = test system: SF-295; test: Growth inhibition of human SF295 cells assessed as cell growth at 5X10'-5 M after 48 hrs by sulforhodamine B assay; details: SF-295, 48 h, read-out: Activity
[35] = test system: K562; test: Growth inhibition of human K562 cells assessed as cell growth at 5X10'-9 M after 48 hrs by sulforhodamine B assay; details: K562, 48 h, read-out: Activity
[36] = test system: HOP-92; test: Growth inhibition of human HOP92 cells assessed as cell growth at 5X10'-6 M after 48 hrs by sulforhodamine B assay; details: HOP-92, 48 h, read-out: Activity
[37] = test system: TK-10; test: Growth inhibition of human TK10 cells assessed as cell growth at 5X10'-6 M after 48 hrs by sulforhodamine B assay; details: TK-10, 48 h, read-out: Activity

`COc1cc(-c2nn(-c3cccc(NC(=O)Nc4cc(C(F)(F)F)cc(C(F)(F)F)c4)c3)cc2-c2ccncc2)ccc1Cl` gave a growth at 0.05 µM [1] of 97%, a growth at 5 µM [2] of 3% and a growth at 5 µM [3] of -40%. The growth at 5 µM [4] was -9%, the growth at 0.5 µM [5] was 92% and the growth at 50 µM [6] was -57%. The growth at 0.05 µM [7] was 106%, the growth at 5 µM [8] was -77% and the growth at 0.05 µM [9] was 91%. The growth at 0.005 µM [10] was 92%, the growth at 0.005 µM [11] was 110% and the growth at 0.05 µM [12] was 99%. For the same compound, the growth at 0.005 µM [13] was 92%, the growth at 50 µM [14] was 3% and the growth at 5 µM [15] was -57%. The growth at 5 µM [16] was -68%, the growth at 0.005 µM [17] was 104% and the growth at 5 µM [18] was -96%. It also gave a growth at 0.05 µM [19] of 103%, a growth at 0.05 µM [20] of 95% and a growth at 0.005 µM [21] of 100%. The growth at 0.5 µM [22] was 38%, the growth at 0.05 µM [23] was 104% and the growth at 50 µM [24] was -34%. For the same compound, the growth at 0.005 µM [25] was 90%, the growth at 0.5 µM [26] was 78% and the growth at 0.005 µM [27] was 107%. For the same compound, the growth at 0.5 µM [28] was 75%, the growth at 0.005 µM [29] was 99% and the growth at 0.5 µM [30] was 50%. For the same compound, the growth at 0.05 µM [31] was 106%, the growth at 0.05 µM [32] was 98% and the growth at 50 µM [33] was -65%. The growth at 50 µM [34] was -73%, the growth at 0.005 µM [35] was 99% and the growth at 5 µM [36] was -52%. It also gave a growth at 5 µM [37] of -34%.

In the case of `COc1cc(-c2nn(-c3cccc(NC(=O)c4cccc(C(F)(F)F)c4)c3)cc2-c2ccncc2)ccc1Cl`, the growth at 0.05 µM [1] is reported as 99%, the growth at 5 µM [2] is reported as 12% and the growth at 5 µM [3] is reported as 28%. The growth at 5 µM [4] was 28%, the growth at 0.5 µM [5] was 101% and the growth at 50 µM [6] was -1%. It also gave a growth at 0.05 µM [7] of 96%, a growth at 5 µM [8] of 14% and a growth at 0.05 µM [9] of 90%. For the same compound, the growth at 0.005 µM [10] was 98%, the growth at 0.005 µM [11] was 96% and the growth at 0.05 µM [12] was 94%. For the same compound, the growth at 0.005 µM [13] was 94%, the growth at 50 µM [14] was -4% and the growth at 5 µM [15] was -56%. It also gave a growth at 5 µM [16] of 5%, a growth at 0.005 µM [17] of 103% and a growth at 5 µM [18] of -38%. For the same compound, the growth at 0.05 µM [19] was 92%, the growth at 0.05 µM [20] was 98% and the growth at 0.005 µM [21] was 89%. The growth at 0.5 µM [22] was 88%, the growth at 0.05 µM [23] was 82% and the growth at 50 µM [24] was 14%. For the same compound, the growth at 0.005 µM [25] was 94%, the growth at 0.5 µM [26] was 108% and the growth at 0.005 µM [27] was 108%. It also gave a growth at 0.5 µM [28] of 103%, a growth at 0.005 µM [29] of 91% and a growth at 0.5 µM [30] of 81%. It also gave a growth at 0.05 µM [31] of 96%, a growth at 0.05 µM [32] of 100% and a growth at 50 µM [33] of -2%. For the same compound, the growth at 50 µM [34] was -26%, the growth at 0.005 µM [35] was 94% and the growth at 5 µM [36] was -14%. It also gave a growth at 5 µM [37] of 36%.
